Measurements taken from article PMC6198970, “Safety, efficacy, and dose response of the maturation inhibitor GSK3532795 (formerly known as BMS-955176) plus tenofovir/emtricitabine once daily in treatment-naive HIV-1-infected adults: Week 24 primary analysis from a randomized Phase IIb trial” (PLoS ONE, 2018).
“And” between values parts separate entries of the source, which are not always exact repeats. Equal values may be shown once. Read-outs that look alike come from different tables or passages of the source.

Legend:
[1] = set-up: method as in Study AI468049; details: 180 mg MC tablet, preliminary, ref Study AI468049, cited from earlier work
[2] = ref protocol Section 1.4.1.2, cited from earlier work
[3] = cited from earlier work
[4] = set-up: method as in protocol Section 1.4.1.2; details: 300 mg/kg/day (AUC 279 g·h/mL); ref protocol Section 1.4.1.2; cited from earlier work
OCT2 = system: OCT2; set-up: method as in protocol Section 1.4.1.2; details: preliminary data; ref protocol Section 1.4.1.2; cited from earlier work
[5] = cited from earlier work; remark: listed apart in the source
CYP3A4 = system: CYP3A4; set-up: method as in protocol Section 1.4.1.2; details: ref protocol Section 1.4.1.2; cited from earlier work
[6] = BMS-955176 40 mg SDD suspension and TDF at steady state; ref Study AI468005; cited from earlier work
HIV-1 = test: Phase IIb study 205891: plasma HIV-1 RNA response at Week 24 (FDA snapshot, observed); assay type: in vivo, HIV-1-infected adults; details: Week 24, mITT; GSK3532795: range across 60, 120, 180 mg arms; EFV 600 mg; each + TDF/FTC
Experimental: The primary endpoint was determination of the proportion of participants with plasma HIV-1 RNA <40 copies/mL at Week 24 after treatment with GSK3532795 or efavirenz (EFV).
205891 was a Phase IIb, randomized, active-controlled, double-blind trial performed at 58 sites in 12 countries across South America, North America, South Africa, and Europe. Participants were randomized 1:1:1:1 to one of four treatment arms; GSK3532795 at doses of 60 mg, 120 mg or 180 mg once daily (QD), and one reference arm with EFV at a dose of 600 mg QD, each given in combination with TDF/FTC 300/200 mg QD.
Participants attended study visits at screening, on Day 1, and once every 4 weeks from Week 4 to Week 24 (telephonic visits were conducted at Week 20). Participants were expected to continue treatment, then, through Week 96, with visit intervals every 8–12 weeks. A post-dose safety follow-up visit was also conducted 12 weeks after treatment discontinuation. Plasma HIV-1 RNA levels were quantified by the Abbott RealTime HIV-1 assay.
The FDA-defined snapshot algorithm was used for primary endpoint efficacy assessment, using the last plasma HIV-1 RNA value in the pre-defined Week 24 visit window (± 6 weeks) to determine response. The modified intent-to-treat (mITT) population consisted of participants who received at least one dose of GSK3532795 or EFV. […]

CYPs = system: CYPs; set-up: method as in protocol Section 1.4.1.2; details: ref protocol Section 1.4.1.2; cited from earlier work
93 subtype B viruses = system: 93 subtype B viruses; set-up: method as in protocol Section 1.4.1.2; details: ref protocol Section 1.4.1.2, read-out: EC50, median; cited from earlier work
[7] = cited from earlier work; remark: listed apart in the source
[8] = set-up: method as in Study AI468034; details: 120 mg MC tablet; ref Study AI468034; cited from earlier work
[9] = Population PK model (NONMEM); assay type: in vivo, HIV-1-infected adults
Experimental: Population PK analyses were conducted via non-linear mixed effects using non-linear mixed-effects modeling (NONMEM) software, version 7, level 2.0 (ICON Development Solutions, Hanover, Maryland, USA).[17] A summary of the population PK modeling methods and exposure response exploratory analyses for efficacy and safety is included in Supporting information.
Population pharmacokinetic (PK) analyses were conducted via nonlinear mixed-effects modelling using nonlinear mixed effects modeling (NONMEM) software, version 7, level 2.0 (ICON Development Solutions, Hanover, MD). Assessment of model adequacy and decision about increasing model complexity was driven by the data and guided by goodness-of-fit criteria, including visual inspection of diagnostic scatter plots (observed versus predicted concentration, residual/weighted residual versus predicted concentration or time and histograms of individual random effects, for example), successful convergence of the minimization routine, plausibility of parameter estimates, precision of parameter estimates, correlation between model parameter estimation errors < 0.95, and the Akaike information criterion (AIC), given the minimum objective function value and number of estimated parameters. An exploratory investigation of covariate-parameter relationships was undertaken as part of the population PK analysis. Predictive performance was assessed using stratified non-parametric bootstrapping (n=500). Following the construction of a suitable PK model, individual-specific steady-state exposure metrics were derived for exposure-response investigation. An exploratory plotting analysis was performed to investigate exposure–response relationships for efficacy and safety endpoints, where endpoints including fraction of participants with <40 c/mL at Week 24 (modified intent-to-treat population) and percentage of participants with Grade 1, 2, 3, and 4 gastrointestinal events (adverse events >7 days) were analysed as a function of exposure quantiles.

[10] = set-up: method as in Study AI468041; details: BMS-955176 80 mg SDD suspension with combined oral contraceptive; ref Study AI468041; cited from earlier work
[11] = Clinical laboratory evaluations; assay type: in vivo, HIV-1-infected adults
Experimental: Physical examinations, measurement of vital signs, and clinical laboratory evaluations were performed at Weeks 4, 8, 12, 16 and 24, and participants were closely monitored for AEs and SAEs throughout. AEs were classified according to MedDRA version 19.0. The severity and relationship to study drug was assessed by the local investigator.

[12] = system: reverse transcriptase (RT), protease, and integrase inhibitor-resistant viruses; details: cited from earlier work
[13] = set-up: method as in protocol Section 1.4.1.2; details: 100% human serum; ref protocol Section 1.4.1.2; listed as BMS-955176; cited from earlier work
CYP1A2, CYP2B6, CYP3A4 = system: CYP1A2, CYP2B6, CYP3A4; set-up: method as in protocol Section 1.4.1.2; details: ref protocol Section 1.4.1.2; cited from earlier work

C=C(C)[C@@H]1CC[C@]2(NCCN3CCS(=O)(=O)CC3)CC[C@]3(C)[C@H](CC[C@@H]4[C@@]5(C)CC=C(c6ccc(C(=O)O)cc6)C(C)(C)[C@@H]5CC[C@]43C)[C@@H]12 [GSK3532795]
Increase in Cmax relative to fasted ([1]; all three meal types): approximately 2 fold
Increase in AUC relative to fasted ([1]; high fat meal): 2.5 fold
Increase in AUC relative to fasted ([1]; standard meal): 2.1 fold
Developmental toxicity classification ([2]; mice, no maternal toxicity at any dose): selective developmental toxicant
Developmental NOAEL ([2]; mouse EFD): 45 mg/kg/day
Cumulative postimplantation losses ([2]; printed dose 100 mg/kg/day, […] in control litters): 11.5%
Reductions in fetal body weight relative to control values [2]: 5%
Blood pressure and electrocardiogram ([3]; at 20 mg/kg, ref protocol Section 1.4.1.2): unaffected
No-observed-effect level (NOEL/NOAEL) for cardiovascular effects (heart rate) ([3]; dog, in vivo): 2 mg/kg
Genotoxicity in rat micronucleus assay [4]: not genotoxic
Inhibition of OCT2 (OCT2): does not inhibit OCT2
Safety in Phase 1 ([5]; SAD 10-120 mg, MAD 10-80 mg QD for 14-28 days, ref Study AI468001): No SAEs, deaths, or discontinuations related to study drug occurred
Half life (T-HALF) ([5]; healthy subjects, ref Study AI468001): approximately 35 hours
Increase in BMS-955176 AUC(TAU) ([5]; multiple dose with daily 400 mg ATV and a standard meal for 14 days, ref AI468001): ~ 25%
Time to steady state ([5]; multiple-dose once daily, ref Study AI468001): approximately 7 days
Increase in Cmax and AUC(INF) with dose ([5]; single dose 10-120 mg, multiple dose 10-80 mg QD, ref Study AI468001): slightly less than dose-proportional
Increase in BMS-955176 AUC(INF) ([5]; single dose following two doses of 100 mg RTV, ref AI468001): ~48%
IC50 (CYP3A4): 32 µM
Impact of coadministration on exposures [6]: neither BMS-955176 nor TDF exposures were meaningfully impacted
Participants achieving HIV-1 RNA <40 copies/mL (HIV-1): 76–83%
Time-dependent inhibition of CYPs (CYPs): No
EC50 (93 subtype B viruses): 2.2 nM
Increase in serum ALT activity ([7]; 20 mg/kg/day, 1 female, ref protocol Section 1.4.1.2): 2.10 × pretest
Loss of body weight ([7]; 20 mg/kg/day, 2 females, ref protocol Section 1.4.1.2): up to 8%
NOAEL ([7]; dog, in vivo): 8 mg/kg/day
NOAEL dose (heart rate) ([7]; dog, in vivo): 20 mg/kg/day
Bioavailability lower relative to 80 mg SDD suspension [8]: approximately 23%
Impact of high fat meal on Cmax [8]: negligible impact
Increase in C24 with a high fat meal relative to fasted [8]: approximately 70%
Reduction in clearance in African-American participants ([9]; compared with White participants): 23%
Additive residual error ([9]; final population PK model): 37400
First-order absorption rate (Ka), estimate ([9]; final population PK model): 0.0236 h⁻¹
Interindividual variance of CL ([9]; final population PK model): 0.0610
Interindividual variance of Ka ([9]; final population PK model): 0.164
Interindividual variance of V ([9]; final population PK model): 0.462
Interoccasion variance of F1 ([9]; final population PK model): 0.0512
Proportional residual error ([9]; final population PK model): 0.0165
clearance ([9]; human, in vivo, oral, final population PK model, read-out: Clearance (CL), estimate (converted)): 37.3 mL/min
Vd ([9]; human, in vivo, oral, final population PK model, read-out: Volume of distribution (V), estimate): 5.58 L
Increase in clearance in participants with Grade ≥2 diarrhea ([9]; relative to no diarrhea): 18%
Effect on exposures to ethinyl estradiol (EE) and norelgestromin (NGMN) [10]: reduced
Grade 3 low potassium ([11]; 60 mg arm): one participant
Mean total cholesterol, direction of change ([11]; 120 mg arm, baseline to Week 24): decreased
Grade 3 laboratory abnormalities in triglycerides and creatinine clearance (CrCl) ([11]; 180 mg arm): one participant each
Grade 3 liver chemistry abnormalities ([11]; GSK3532795 arms): three participants
Mean decrease in triglyceride levels ([11]; range across all GSK3532795 arms, baseline to Week 24): 5.0 to 12.9 mg/dL
Activity against RT, protease, and integrase inhibitor-resistant viruses ([12]; EC50 values similar to wild-type, ref protocol Section 1.4.1.2): retains complete activity
Activity against a panel of PI-resistant isolates from PI-treated subjects ([12]; major and minor PI-resistance determinants in protease and Gag): maintained activity
Protein binding [13]: 86% and 86.1%
Induction of CYP1A2, CYP2B6, or CYP3A4 (CYP1A2, CYP2B6, CYP3A4): not an inducer
